{
  "source": "patent US20250027085A1",
  "about": "“COMPOSITIONS AND METHODS FOR TREATING ALZHEIMER'S DISEASE UTILIZING A TRANSCRIPTIONAL MASTER REGULATOR OF THE RETROMER COMPLEX” (THE TRUSTEES OF COLUMBIA UNIVERSITY IN THE CITY OF NEW YORK, priority 2022, published 2025)",
  "system": "CHOP",
  "assay": "CHOP quantitative immunofluorescence in soma after axonal Aβ1-42/Aβ42",
  "format": "cell-based, rat",
  "settings": "axonal treatment; Aβ oligomers 36 hours, nelfinavir in the last 24 hours",
  "method": "Hippocampi were dissected from embryonic day (E) 16-18 rat embryos obtained from pregnant Sprague-Dawley dams (Envigo). All animal procedures were approved by the Institutional Animal Care and Use Committee at Columbia University. Cell dissociation was performed using TripLE Express. Neurons (50,000-60,000 per microfluidic chamber) were plated on 0.1 mg ml^-1 poly-D-lysine (Millipore Sigma) and 2 μg ml^-1 laminin (Bio-Techne) coated substrates and grown in Neurobasal supplemented with 10% fetal bovine serum, 2 mM L-glutamine, 1 mM sodium pyruvate, and antibiotics (50 U ml^-1 penicillin-streptomycin). Tripartite microfluidic chambers were produced with Dow Corning Sylgard 184 Silicone Encapsulant Clear Kit (10:1 mix ratio; Ellsworth Adhesives) cured at […] for at least 4 hours following published protocols (Park et al. 2006; Desai et al. 2009). Chamber design incorporated two sets of 200-μm-long microgroove barriers to exclude crossing of cell bodies and dendrites (Taylor et al. 2005; […] et al. 2009). After 24 hours, medium was changed to Neurobasal containing 1×B27 and 2 mM L-glutamine. Subsequent medium changes (half volumes) were performed at DIV4 and thereafter every 3-5 days. […] Mean pixel intensity values were computed after background fluorescence subtraction.",
  "data": [
    {"smiles": "Cc1c(O)cccc1C(=O)N[C@@H](CSc1ccccc1)[C@H](O)CN1C[C@H]2CCCC[C@H]2C[C@H]1C(=O)NC(C)(C)C", "note": "[nelfinavir]", "values": [
      {"measurement": "downstream induction of CHOP expression in the soma", "result": "abolished"}
    ]}
  ]
}
